In BindingDB's records for doi:10.1124/jpet.301.3.1166 (University of North Carolina, 2002):
Several values for one entry are separate records, joined by “and”; a condition that tells them apart may be missing. Equal entries are not always repeated.

Tests used:
D(2) dopamine receptor = D(2) dopamine receptor (Rattus norvegicus, UniProt P61169)
D(1A) dopamine receptor = D(1A) dopamine receptor (Rattus norvegicus, UniProt P18901)
D(1A) dopamine receptor, sequence (P18901 whole entry): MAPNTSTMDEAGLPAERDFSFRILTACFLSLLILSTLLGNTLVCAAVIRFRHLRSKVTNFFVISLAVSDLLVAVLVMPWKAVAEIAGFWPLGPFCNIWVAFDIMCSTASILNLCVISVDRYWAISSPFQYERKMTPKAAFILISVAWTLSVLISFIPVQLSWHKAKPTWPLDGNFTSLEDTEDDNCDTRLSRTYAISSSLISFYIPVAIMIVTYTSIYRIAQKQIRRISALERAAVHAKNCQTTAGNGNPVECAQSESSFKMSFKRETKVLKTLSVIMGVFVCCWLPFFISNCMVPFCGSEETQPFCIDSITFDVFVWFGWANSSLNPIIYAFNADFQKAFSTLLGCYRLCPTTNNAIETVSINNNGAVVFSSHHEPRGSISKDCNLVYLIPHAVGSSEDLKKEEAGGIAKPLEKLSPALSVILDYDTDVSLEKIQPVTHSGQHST

D(2) dopamine receptor, sequence (P61169 whole entry): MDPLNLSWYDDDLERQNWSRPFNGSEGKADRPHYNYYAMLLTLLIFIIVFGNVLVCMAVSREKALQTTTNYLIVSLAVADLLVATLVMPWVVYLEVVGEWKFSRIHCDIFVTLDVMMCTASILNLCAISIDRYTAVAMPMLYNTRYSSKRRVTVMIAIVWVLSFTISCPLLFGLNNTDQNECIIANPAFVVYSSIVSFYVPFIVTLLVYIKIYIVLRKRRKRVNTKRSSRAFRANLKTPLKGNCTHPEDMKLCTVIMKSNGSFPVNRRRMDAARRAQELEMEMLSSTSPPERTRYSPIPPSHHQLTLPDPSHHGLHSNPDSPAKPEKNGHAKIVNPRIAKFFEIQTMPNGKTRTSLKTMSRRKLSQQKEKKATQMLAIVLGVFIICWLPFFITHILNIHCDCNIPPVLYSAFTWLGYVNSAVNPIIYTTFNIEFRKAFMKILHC

## CCCN1Cc2ccccc2[C@@H]2c3cc(O)c(O)cc3CC[C@H]21 [N-n-propyldihydrexidine, N-Pr-DHX]
D(2) dopamine receptor
  Ki: 6.5 nM and 20 nM
D(1A) dopamine receptor
  Ki: 320 nM
